Experimental data taken from patent publication US11325908B2, “CaMKII inhibitors and uses thereof” (The Johns Hopkins University, priority 2014, dated 2022).

The molecules below were run against CaMKIIδ (Homo sapiens (Human), UniProt Q13557) (assay: In vitro CaMKIIδ activity assay (coupled assay measuring ADP released, AC3 peptide substrate)). Conditions: full length C-terminal His/Gln tagged CaMKIIδ construct, 16 nM enzyme, 25° C., compound 0.5 nM to 10 uM, duplicate.
Format: biochemical
Method: An exemplary procedure for the in vitro CaMKIIδ inhibition assay, which can be used to determine the inhibitory action of compounds of the invention toward CaMKII, follows. The procedure is taken from Chao L H, et al., (2010) Nat Struct Mol Biol. 17(3): 264-272, which is incorporated herein by reference in its entirety.
The inhibition of CaMKII activity was evaluated using a coupled assay measuring ADP released following ATP hydrolysis and phosphor-transfer to the peptide substrate AC3 (KKALHRQETVDAL; SEQ ID NO: 1) (1). A full length, C-terminal His/Gln tagged CaMKIIδ construct was used (sequence in Table 3 below).
Compounds were added in 5 uL volume to wells in UV transparent 96-well plates (1/2 area well size). The final compound concentrations tested ranged from 0.5 nM to 10 uM). Assays were performed in duplicate. CaMKIIδ is added to at a final concentration of 16 nM to a mixture containing 100 mM Tris (pH 7.5), 150 mM KCl, 0.27 mM EGTA, 1.3 mM PEP, 0.2 mg/ml AC3, 6.9% (v/v) PK/LDH mixture (Sigma P0294), 0.38 mM NADH and kept on ice. 72 uL of the enzyme mixture was added to the wells containing compounds and the plate was shaken briefly and kept on ice. The assay was initiated by adding 23 uL of a mixture containing 100 mM Tris (pH 7.5), 150 mM KCl, 1.7 mM CaCl2, 48 mM MgCl2, 0.35 mM ATP and 6.7 ug/mL calmodulin. The rate of ADP released was measured as the rate of absorbance decrease at […] at 25° C. and plotted against the log of the compound concentration (FIG. 1). IC50 data were fitted using GraphPad Prism software.

| IC50 [nM] | SMILES |
| --- | --- |
| 50 to 250 | c1cc(-c2ccnc3[nH]c4ccccc4c23)cc(N2CCNCC2)c1 [Compound I-1, 4-(3-(piperazin-1-yl)phenyl)-9H-pyrido[2,3-b]indole] |
| 50 to 250 | N=C(N)Nc1cccc(-c2ccnc3[nH]c4ccccc4c23)c1 [Compound I-4] |
| 250 to 1000 | N=C(N)NCc1cccc(-c2ccnc3[nH]c4ccccc4c23)c1 [Compound I-5] |
| 50 to 250 | Nc1cccc(-c2ccnc3[nH]c4ccccc4c23)c1 [Compound I-6] |
